US10028996B2, “Process for the synchronization of ovulation for timed breeding without heat detection” (priority 2003, dated 2018)

Key:
Format in all cases: in vivo, swine
mature postpartum sows = assay: Deslorelin injected intravulvar at estrus detection in mature postpartum sows, AI breeding; details: 50 mcg intravulvar at estrus detection
Protocol: Sows were assigned randomly in blocks of two to either control or to be injected intravulvar with 50 mcg of deslorelin in SAIB at the time of estrus detection for sows first detected in estrus in the a.m. and 12 hours later for those first detected in estrus in the p.m. Treated animals were bred AI upon detected estrus and again 24 hours later if still in estrus. Controls received a saline injection on first detected estrus behavior estrus detection and were bred according to the farm's normal procedures.

postpartum sows [1] = assay: Single timed deslorelin injection 96 hours post-weaning, single timed insemination without estrus detection; details: 50 mcg in SAIB 96 hours post-weaning, no estrus detection
Protocol: Approximately 170 postpartum sows were randomly divided into two equal groups comprised of controls and treated. Following weaning, the controls were detected for estrus and bred following the normal standard operating procedures for the farms on which they resided. The treated sows received a 50 mcg dose of deslorelin in SAIB at 96 hours post-weaning and were bred with a single insemination 28+/−2 hours later with no regard to estrus detection. The sows were examined for pregnancy by ultrasound at 21 days and slaughtered around 28 days post breeding. The entire reproductive tract was removed and corpora lutea and embryos were counted.

postpartum sows [2] = assay: Litter size after deslorelin treatment in postpartum sows at three farm sites; details: Tables 3 to 5; regardless of estrus detection
Source text: Postpartum sows were randomly distributed into three different groups comprised of Controls, Treatment 1, and Treatment 2, with the exception of Site 3, which was divided into two groups, Control and Treatment 2. Control sows were detected for estrus following weaning, and bred following the normal standard operating procedures for the farms on which they resided. Treatment 1 sows were detected for estrus following weaning, and received a 50 mcg dose of deslorelin in the morning when standing and were bred by AI 4 hours later and again at 24+/−2 hours later. Treatment 2 sows received a 50 mcg dose of deslorelin in SAIB at 96 or 120 hours post-weaning and were bred with a single insemination 28+/−2 hours later with no regard to estrus detection.

[3] = system: ovariectomized estrogen primed gilt model; assay: Dose response study of deslorelin in SAIB, LH release determined by RIA; details: single injection of 50 mcg in SAIB
Protocol: A dose response study was performed using deslorelin in SAIB in an ovariectomized estrogen primed gilt model (Barb, et al. (1999) Proceed. Int'l. Symp. Control. Rel. Bioact. Mater., 26).

Q: Which “difference in pregnancy rates, Control versus Treated” value (mature postpartum sows) does the source give for `CCNC(=O)[C@@H]1CCCN1C(=O)[C@H](CCCN=C(N)N)NC(=O)[C@H](CC(C)C)NC(=O)[C@@H](Cc1c[nH]c2ccccc12)NC(=O)[C@H](Cc1ccc(O)cc1)NC(=O)[C@H](CO)NC(=O)[C@H](Cc1c[nH]c2ccccc12)NC(=O)[C@H](Cc1cnc[nH]1)NC(=O)[C@@H]1CCC(=O)N1` [Deslorelin, deslorelin] here?
A: Its value is “no significant difference”.

Q: What about the “Pregnancy Rate” value (postpartum sows [1]) of the same molecule?
A: The value was 71%.

Q: What about the “litter sizes, in words” value (postpartum sows [2]) of the same molecule?
A: Its value is “normal litter sizes”.

Q: What about the “time at which LH returned to base level” value [3] of the same molecule?
A: The value was at most 18 h.

Q: And the “LH peak relative to normal value” ([3]; compared to Hansel et al. (1973))?
A: The value was “about twice normal value”.
